According to patent US20100035868A1, “METHODS OF TREATMENT OF UTERINE PATHOLOGICAL CONDITIONS” (MEDICAL RESEARCH COUNCIL, priority 2001, published 2010):
Where two headings read alike, the source gives them in different places.

Key:
COX-2 = target: T1, COX-2 (Homo sapiens, UniProt P35354); details: cited from earlier work
T1 sequence (P35354 18-604): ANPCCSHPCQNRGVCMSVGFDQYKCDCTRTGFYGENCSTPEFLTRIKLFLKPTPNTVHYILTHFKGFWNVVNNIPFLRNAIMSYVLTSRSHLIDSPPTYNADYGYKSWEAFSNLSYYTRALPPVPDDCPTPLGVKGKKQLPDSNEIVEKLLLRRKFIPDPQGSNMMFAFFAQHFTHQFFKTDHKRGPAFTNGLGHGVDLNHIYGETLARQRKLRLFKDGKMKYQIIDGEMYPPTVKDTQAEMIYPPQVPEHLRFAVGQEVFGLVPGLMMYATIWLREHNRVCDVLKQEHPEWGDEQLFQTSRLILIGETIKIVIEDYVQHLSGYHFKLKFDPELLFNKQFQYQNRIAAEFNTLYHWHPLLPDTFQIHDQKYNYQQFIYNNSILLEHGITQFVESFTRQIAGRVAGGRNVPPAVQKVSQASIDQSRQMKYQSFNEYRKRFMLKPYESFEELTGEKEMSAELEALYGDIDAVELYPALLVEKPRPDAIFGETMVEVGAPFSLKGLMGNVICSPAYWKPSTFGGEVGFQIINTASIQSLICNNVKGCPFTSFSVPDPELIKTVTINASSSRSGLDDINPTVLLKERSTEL

EP2/EP4 receptors [1] = experiment: cAMP generation in cultured endometrial adenocarcinoma tissue after PGE2 stimulation; format: cell-based, human; details: endometrial adenocarcinoma tissue (n=6), 300 nM PGE2 for 5 min, IBMX 1 mM; treated/untreated
Experimental: (§1) In vitro culture and cAMP measurement. Endometrial tumour tissue (n=6; two well, two moderately and two poorly differentiated adenocarcinomas) and normal secretory phase endometrium (n=6) were minced finely with scissors and incubated in 2 ml RPMI (Sigma) medium containing 10% fetal calf serum, 0.3 mg/ml L-glutamine, 100 IU penicillin, 100 μg streptomycin and 3 μg/ml indomethacin, for 1.5 hrs at 37C in humidified 5% CO2. Thereafter samples were incubated in the same medium containing IBMX (Sigma) to a final concentration of 1 mM for 30 min at 37C and then stimulated for 5 min with 300 nM PGE2. Control treatments received no PGE2. Tissue was harvested by centrifugation at 2000 g. The supernatant was discarded and the tissue homogenised in 0.1 M HCl. cAMP concentration was quantified by ELISA using a cAMP kit (Biomol; Affiniti, Exeter, UK) and normalised to protein concentration of the homogenate. Protein concentrations were determined using protein assay kits (Bio-Rad, Hemel Hempstead, UK). The data are presented as fold induction of cAMP following treatment with PGE2. Fold induction was calculated by dividing cAMP values for the PGE2-treated samples by the value for the untreated sample.

EP2/EP4 receptors [2] = experiment: cAMP generation in cultured normal secretory phase endometrium after PGE2 stimulation; format: cell-based, human; details: normal secretory phase endometrium (n=6), 300 nM PGE2 for 5 min, IBMX 1 mM; treated/untreated
Experimental: as §1

Compound: CS(=O)(=O)Nc1ccc([N+](=O)[O-])cc1Oc1ccccc1 [Nimesulide, N-(4-nitro-2-phenoxyphenyl)methane sulfonamide]
- more specific for COX-2 inhibition than for COX-1 inhibition (COX-2): 100 fold

Compound: CCCCC[C@H](O)/C=C/[C@H]1[C@H](O)CC(=O)[C@@H]1C/C=C\CCCC(=O)O [PGE2, prostaglandin E2]
- fold induction of cAMP generation in response to PGE2 (EP2/EP4 receptors [1]): 3.42±0.46
- fold induction of cAMP generation in response to PGE2 (EP2/EP4 receptors [2]): 1.15±0.05

Compound: CS(=O)(=O)Nc1cc2c(cc1Sc1ccc(F)cc1F)C(=O)CC2 [L 475 L337]
- more specific for COX-2 inhibition than for COX-1 inhibition (COX-2; COX-2 versus COX-1): 500 fold
